Assay results reported in patent US11344510B2, “Arylcyclohexylamine derivatives and their use in the treatment of psychiatric disorders” (Gilgamesh Pharmaceuticals, Inc., priority 2019, dated 2022).
Read-outs that look alike come from different tables or passages of the source.

Experiments:
[1] = target: T1, dopamine transporter (DAT) (Homo sapiens, UniProt Q01959); experiment: Fluorescent substrate uptake inhibition, DAT; type: cell-based; details: for inhibition at 10 µM: CHO cells expressing DAT
T1 construct: expressed in transfected cells; host or cells: CHO (uptake)
T1 sequence (Q01959 whole entry, species assumed): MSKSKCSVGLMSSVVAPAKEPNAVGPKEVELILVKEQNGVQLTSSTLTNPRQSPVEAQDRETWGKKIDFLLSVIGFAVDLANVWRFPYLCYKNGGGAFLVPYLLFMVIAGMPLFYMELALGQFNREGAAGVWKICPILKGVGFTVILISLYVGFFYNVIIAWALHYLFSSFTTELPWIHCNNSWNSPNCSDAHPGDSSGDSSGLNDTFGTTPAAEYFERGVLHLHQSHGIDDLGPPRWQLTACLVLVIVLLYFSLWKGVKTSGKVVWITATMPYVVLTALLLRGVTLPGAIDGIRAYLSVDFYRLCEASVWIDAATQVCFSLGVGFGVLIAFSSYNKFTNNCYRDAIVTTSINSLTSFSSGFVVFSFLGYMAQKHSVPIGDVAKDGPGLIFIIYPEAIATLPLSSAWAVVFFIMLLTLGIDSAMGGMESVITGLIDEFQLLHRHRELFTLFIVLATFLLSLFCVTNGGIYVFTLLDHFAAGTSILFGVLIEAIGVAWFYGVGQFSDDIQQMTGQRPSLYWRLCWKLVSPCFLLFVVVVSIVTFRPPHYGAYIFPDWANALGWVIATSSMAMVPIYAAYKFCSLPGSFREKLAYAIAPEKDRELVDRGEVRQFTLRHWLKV

[2] = Oral bioavailability in mice, Method B; type: in vivo; details: CD-1 mice; for AUC0-inf (iv) / AUC0-last (po) / AUC(0-inf): Method B: values represent AUC0-last (footnote); for F: 10 mg/kg; for Cmax / AUC(0-inf) / half-life: male, mouse
Protocol: Animals. Male CD-1 mice were used in these studies Animals were randomly assigned to treatment groups and were fasted for 4 h before oral dosing.
Drugs. Test compounds were dissolved in a vehicle consisting of normal saline (compounds 19S and 88R) or a mixture of 5% v/v N-methyl-2-pyrrolidone, 5% v/v Solutol HS-15, and 90% v/v normal saline (compounds 11S, 11R, 114S, and 114R). They were then administered intravenously (iv) or orally (po) at a dose of 10 mg/kg (calculated based on freebase) and at a volume of 5 mL/kg body weight. Compounds were tested as the racemates (indicated by “rac” nomenclature) or pure enantiomers (indicated by “R” or “S” nomenclature).
Sample Collection and Bioanalysis. Blood samples (approximately 60 μL) were collected under light isoflurane anesthesia (Surgivet®) from the retro orbital plexus at 0.08, 0.25, 0.5, 1, 2, 4, 8, and 24 h (4 animals per time point) Immediately after blood collection, plasma was harvested by centrifugation at 4000 rpm for 10 min at 4° C. and samples were stored at −70±10° C. until bioanalysis. Following blood collection, animals were immediately sacrificed, the abdominal vena-cava was cut open, and the whole body was perfused from the heart using 10 mL of normal saline, and brain samples were collected from all animals After isolation, brain samples were rinsed three times in ice-cold normal saline (for 5-10 seconds/rinse using ˜5-10 mL normal saline in disposable petri dish for each rinse) and dried on blotting paper. Brain samples were homogenized using ice-cold phosphate-buffered saline (pH 7.4). Total homogenate volume was three times the tissue weight. All homogenates were stored at −70±10° C. until bioanalysis. For bioanalysis, 25 μL aliquots of plasma/brain study samples or spiked plasma/brain calibration standards were added to individual pre-labeled micro-centrifuge tubes followed by 100 μL of an internal standard solution (glipizide, 500 ng/mL in acetonitrile) except for blanks, where 100 μL of acetonitrile was added. Samples were vortexed for 5 minutes and then centrifuged for 10 minutes at 4000 rpm at 4° C. Following centrifugation, 100 μL of each clear supernatant was transferred to a 96 well plate and analyzed with a fit-for-purpose LC-MS/MS method, with authentic samples of each analyte used for calibration and identification.
Data Analysis. Pharmacokinetic parameters were estimated using the non-compartmental analysis tool of Phoenix® WinNonlin software (Ver 8.0).

[3] = target: T2, norepinephrine transporter (NET) (Homo sapiens, UniProt P23975); experiment: Fluorescent substrate uptake inhibition, NET; type: cell-based; details: for inhibition at 10 µM: HEK293 cells expressing NET
T2 construct: expressed in transfected cells; host or cells: HEK293
T2 sequence (P23975 whole entry, species assumed): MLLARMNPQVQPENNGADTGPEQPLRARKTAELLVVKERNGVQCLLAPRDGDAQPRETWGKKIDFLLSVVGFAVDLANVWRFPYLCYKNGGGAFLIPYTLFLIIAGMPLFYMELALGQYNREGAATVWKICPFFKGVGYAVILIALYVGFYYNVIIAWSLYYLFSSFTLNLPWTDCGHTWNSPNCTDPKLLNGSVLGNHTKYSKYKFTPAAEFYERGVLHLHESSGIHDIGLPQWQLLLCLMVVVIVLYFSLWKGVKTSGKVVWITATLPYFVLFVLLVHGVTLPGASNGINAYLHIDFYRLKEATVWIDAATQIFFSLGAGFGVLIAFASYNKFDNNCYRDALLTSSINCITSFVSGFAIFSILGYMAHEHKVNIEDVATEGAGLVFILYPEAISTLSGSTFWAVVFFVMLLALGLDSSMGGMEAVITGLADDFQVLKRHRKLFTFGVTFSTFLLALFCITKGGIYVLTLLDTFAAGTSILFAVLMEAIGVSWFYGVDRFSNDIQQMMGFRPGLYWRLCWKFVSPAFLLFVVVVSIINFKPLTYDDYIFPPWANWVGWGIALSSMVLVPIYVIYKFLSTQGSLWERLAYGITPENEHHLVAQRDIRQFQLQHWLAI

[4] = MLM stability (High Activity); type: in vitro ADME, BALB/c mice; details: male, BALB/c, mouse, liver microsomes, pH 7.4, Condition 2 (High Activity), 1.0 mg protein/mL
Outline: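 Pooled male BALB/c mouse liver microsomes (1.0 mg/mL) in 100 mM PBS pH 7.4 with NADPH-regenerating system; compound 1 μM, 37 °C, five time points over 60 min, duplicate; NADPH-free controls. Parent remaining by LC-MS/MS; kel, t1/2 and Clint from linear regression of ln(AUC) versus time.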

[5] = calculated based on brain exposure (AUC0-last), Method B
[6] = plasma, 10 mg/kg iv, read-out: AUC0-inf (iv) (converted)
[7] = plasma, 10 mg/kg iv, Method B, read-out: t1/2 (iv)
[8] = plasma, 10 mg/kg po, read-out: AUC0-inf (po) (converted)
[9] = plasma, 10 mg/kg po, Method B, read-out: t1/2 (po)
[10] = plasma, Method B: based on AUC0-last
[11] = brain, 10 mg/kg iv, Method B, read-out: t1/2 (iv)
[12] = brain, 10 mg/kg po, Method B, read-out: t1/2 (po)

Row | SMILES | inhibition at 10 µM [1] | AUC0-inf (iv) ([2]; brain, 10 mg/kg iv) | AUC0-last (po) ([2]; brain, 10 mg/kg po) | F [2, 5] | Cmax ([2]; brain, 10 mg/kg po, Method B) | AUC(0-inf) [2, 6] | half-life [2, 7] | Cmax ([2]; plasma, 10 mg/kg po, Method B) | AUC(0-inf) [2, 8] | half-life [2, 9] | F [2, 10] | inhibition at 10 µM [3] | half-life at 1 μM [4] | microsomal CLint at 1 μM [4] | half-life [2, 11] | half-life [2, 12] | IC50 [1] | IC50 [3]
1 | Cc1ccccc1[C@@]1(N)CCCCC1=O [Compound 114S, (S)-2-amino-2-(o-tolyl)cyclohexan-1-one] | -15.2% | 244,634 ng*min/g | 86,338 ng*min/g | 35% | 825 ng/g | 757 ng·h/mL | 1.34 h | 746 ng/mL | 1470 ng·h/mL | 1.32 h | 194% | 10.4% |  |  |  |  |  | 
2 | CN[C@@]1(c2ccccc2)CCCCC1=O [Compound 14R, (R)-2-(methylamino)-2-phenylcyclohexan-1-one] | -4.5% |  |  |  |  |  |  |  |  |  |  | 1.7% | 3.28 h | 4 µL/min/mg |  |  |  | 
3 | [2H]C([2H])([2H])N[C@@]1(c2ccccc2)CCCCC1=O [Compound 88R, (R)-2-((methyl-d3)amino)-2-phenylcyclohexan-1-one] | 7.9% | 334,518 ng*min/g | 143,445 ng*min/g | 43% | 3100 ng/g | 1530 ng·h/mL | 0.57 h | 621 ng/mL | 718 ng·h/mL | 1.38 h | 47% | 10.6% | 1.76 h | 7 µL/min/mg | 0.6 h | 1.33 h |  | 
4 | N[C@]1(c2ccccc2)CCCCC1=O [Compound 11S, (S)-2-amino-2-phenyl-cyclohexan-1-one] | 10.1% | 434,023 ng*min/g | 292,247 ng*min/g | 67% | 2190 ng/g | 3420 ng·h/mL | 1.06 h | 2130 ng/mL | 4200 ng·h/mL |  | 123% | 14.8% | 3.62 h | 3 µL/min/mg | 0.7 h |  |  | 
5 | O=C1CCCCC1(c1ccccc1)N1CCCC1 (racemic) [Compound 27rac, 2-phenyl-2-(pyrrolidin-1-yl)cyclohexan-1-one] | 49.5% |  |  |  |  |  |  |  |  |  |  | 40.8% | 0.583 h | 20 µL/min/mg |  |  | 6.5 µM | 4.9 µM
6 | Cc1ccccc1[C@]1(N)CCCCC1=O [Compound 114R, (R)-2-amino-2-(o-tolyl)cyclohexan-1-one] | 6.2% | 155,752 ng*min/g | 38,185 ng*min/g | 25% | 683 ng/g | 325 ng·h/mL | 0.75 h | 319 ng/mL | 430 ng·h/mL | 1.28 h | 132% | 7.7% |  |  | 0.32 h | 1.12 h |  | 
7 | N[C@@]1(c2ccccc2)CCCCC1=O [Compound 11R, (R)-2-amino-2-phenyl-cyclohexan-1-one] | -11.8% | 621,341 ng*min/g | 220,091 ng*min/g | 35% | 1470 ng/g | 5570 ng·h/mL | 1.11 h | 1430 ng/mL | 4210 ng·h/mL | 2.41 h | 76% | 10.4% | 2.82 h | 4 µL/min/mg | 1.17 h | 1.9 h |  | 
8 | CN[C@]1(c2cccc(F)c2)CCCCC1=O [Compound 19S, (5)-2-(3-fluorophenyl)-2-(methylamino)cyclohexan-1-one] | 18.1% | 171,028 ng*min/g | 23,552 ng*min/g | 14% | 436 ng/g | 1130 ng·h/mL | 1.9 h | 442 ng/mL | 671 ng·h/mL | 2.28 h | 59% | 10.3% | 1.01 h | 11 µL/min/mg | 1.93 h | 2.35 h |  | 
9 | COCCNC1(c2ccccc2)CCCCC1=O (racemic) [Compound 29rac, 2-((2-methoxyethyl)amino)-2-phenylcyclohexan-1-one] |  |  |  |  |  |  |  |  |  |  |  |  | 0.283 h | 41 µL/min/mg |  |  |  | 
10 | O=C1CCCC[C@@]1(c1ccccc1)N1CCC1 [Compound 84S, (S)-2-(azetidin-1-yl)-2-phenyl-cyclohexan-1-one] | 32.2% |  |  |  |  |  |  |  |  |  |  | 34.9% | 0.322 h | 36 µL/min/mg |  |  | 19.5 µM | 29.7 µM
11 | CN[C@]1(c2ccccc2)CCCCC1=O [Compound 14S, (S)-2-(methylamino)-2-phenylcyclohexan-1-one] | -4.5% |  |  |  |  |  |  |  |  |  |  | 1.8% | 4.38 h | 3 µL/min/mg |  |  |  | 
12 | O=C1CCCC[C@]1(c1ccccc1)N1CCC1 [Compound 84R, (R)-2-(azetidin-1-yl)-2-phenyl-cyclohexan-1-one] | 28.2% |  |  |  |  |  |  |  |  |  |  | 29.1% | 0.378 h | 30 µL/min/mg |  |  | 19.4 µM | 15.4 µM
13 | CNC1(c2ccccc2Cl)CCCCC1=O (racemic) [rac-ketamine, racemic ketamine, reference compound] |  |  |  |  |  |  |  |  |  |  |  |  | 0.155 h | 75 µL/min/mg |  |  |  | 
